Assay results: the CheMixHub ionic liquid set
± gives the uncertainty stated by the source.

Experiment: xn = mol fraction of the nth substance listed

CCC(=O)[O-].C[NH+](C)Cc1ccccc1 + CN(C)C=O
viscosity [mPa·s], 101 kPa
Settings	293.15 K	298.15 K	303.15 K	308.15 K	313.15 K	318.15 K	323.15 K	328.15 K
x1 = 0.006283	0.957 ± 0.058	0.915 ± 0.055	0.878 ± 0.053	0.846 ± 0.051	0.817 ± 0.049	0.79 ± 0.048	0.767 ± 0.046	0.745 ± 0.045
x1 = 0.009868	0.965 ± 0.058	0.923 ± 0.056	0.885 ± 0.053	0.852 ± 0.051	0.822 ± 0.05	0.795 ± 0.048	0.771 ± 0.047	0.749 ± 0.045
x1 = 0.01556	0.974 ± 0.059	0.93 ± 0.056	0.893 ± 0.054	0.858 ± 0.052	0.828 ± 0.05	0.8 ± 0.048	0.776 ± 0.047	0.753 ± 0.046
x1 = 0.01941	0.985 ± 0.06	0.94 ± 0.057	0.901 ± 0.054	0.866 ± 0.052	0.834 ± 0.05	0.807 ± 0.049	0.781 ± 0.047	0.758 ± 0.046
x2 = 0.9599	1.036 ± 0.063	0.986 ± 0.06	0.94 ± 0.057	0.9 ± 0.054	0.865 ± 0.052	0.834 ± 0.05	0.806 ± 0.049	0.781 ± 0.047
x2 = 0.9647	1.025 ± 0.062	0.975 ± 0.059	0.932 ± 0.056	0.893 ± 0.054	0.858 ± 0.052	0.828 ± 0.05	0.801 ± 0.048	0.776 ± 0.047
x2 = 0.9703	1.012 ± 0.061	0.964 ± 0.058	0.922 ± 0.056	0.884 ± 0.053	0.851 ± 0.051	0.821 ± 0.05	0.794 ± 0.048	0.77 ± 0.047
x2 = 0.9751	0.997 ± 0.06	0.95 ± 0.057	0.91 ± 0.055	0.873 ± 0.053	0.841 ± 0.051	0.813 ± 0.049	0.787 ± 0.048	0.764 ± 0.046

COCCOCCO + CCCC[n+]1ccn(C)c1.F[B-](F)(F)F
100 kPa
Settings	viscosity [mPa·s]
283.15 K, x2 = 0.05366	7.07 ± 0.087
283.15 K, x2 = 0.09486	8.3 ± 0.1
283.15 K, x2 = 0.1969	12.44 ± 0.16
283.15 K, x2 = 0.2893	17.54 ± 0.23
283.15 K, x2 = 0.3913	25.12 ± 0.35
283.15 K, x2 = 0.4909	35.39 ± 0.52
283.15 K, x2 = 0.5826	48.46 ± 0.74
283.15 K, x2 = 0.6949	71.9 ± 1.2
283.15 K, x2 = 0.7838	100 ± 2
283.15 K, x2 = 0.8792	145 ± 3.4
283.15 K, x2 = 0.9489	192.9 ± 5.3
293.15 K, x2 = 0.04883	4.923 ± 0.061
293.15 K, x2 = 0.09356	5.88 ± 0.074
293.15 K, x2 = 0.192	8.36 ± 0.11
293.15 K, x2 = 0.292	11.92 ± 0.16
293.15 K, x2 = 0.3812	15.94 ± 0.22
293.15 K, x2 = 0.4892	22.53 ± 0.33
293.15 K, x2 = 0.5841	30.52 ± 0.47
293.15 K, x2 = 0.6808	41.95 ± 0.67
293.15 K, x2 = 0.7796	58.1 ± 0.96
293.15 K, x2 = 0.8752	81.9 ± 1.5
293.15 K, x2 = 0.9414	109.4 ± 2.3
303.15 K, x2 = 0.05005	3.91 ± 0.049
303.15 K, x2 = 0.1374	4.662 ± 0.06
303.15 K, x2 = 0.2026	6.323 ± 0.083
303.15 K, x2 = 0.2965	8.36 ± 0.11
303.15 K, x2 = 0.3975	11.28 ± 0.16
303.15 K, x2 = 0.491	15.38 ± 0.23
303.15 K, x2 = 0.5868	20.14 ± 0.31
303.15 K, x2 = 0.6897	27.27 ± 0.44
303.15 K, x2 = 0.7826	36.34 ± 0.61
303.15 K, x2 = 0.8807	50.95 ± 0.87
303.15 K, x2 = 0.9393	63.1 ± 1.1
313.15 K, x2 = 0.04527	2.966 ± 0.037
313.15 K, x2 = 0.09794	3.523 ± 0.045
313.15 K, x2 = 0.2017	4.838 ± 0.064
313.15 K, x2 = 0.2869	6.194 ± 0.084
313.15 K, x2 = 0.3858	8.06 ± 0.11
313.15 K, x2 = 0.4987	10.87 ± 0.16
313.15 K, x2 = 0.5953	13.94 ± 0.21
313.15 K, x2 = 0.6918	18.09 ± 0.29
313.15 K, x2 = 0.7818	23.11 ± 0.39
313.15 K, x2 = 0.8804	29.78 ± 0.52
313.15 K, x2 = 0.9409	34.99 ± 0.63

CC(C)(C)O + CCCC[n+]1ccn(C)c1.O=S(=O)([N-]S(=O)(=O)C(F)(F)F)C(F)(F)F
298 K, 101 kPa
Settings	electrical conductivity [S/m]	viscosity [mPa·s]
x1 = 0.6042	0.52 ± 0.064	–
x1 = 0.653	0.504 ± 0.064	–
x1 = 0.8516	–	9.27 ± 0.49
x2 = 0.0182	–	4.38 ± 0.23

CC(C)=O + CC[n+]1ccn(C)c1C.F[B-](F)(F)F
101.3 kPa, x2 = 0
Settings	viscosity [mPa·s]
293.15 K	0.325 ± 0.031
298.15 K	0.303 ± 0.029
303.15 K	0.297 ± 0.028
308.15 K	0.283 ± 0.027
313.15 K	0.269 ± 0.025
318.15 K	0.251 ± 0.024
323.15 K	0.244 ± 0.023

C[n+]1ccn(CCC(F)(F)C(F)(F)F)c1.F[P-](F)(F)(F)(F)F + CCCC[n+]1ccn(C)c1.F[P-](F)(F)(F)(F)F
Settings	viscosity [mPa·s]
338.16 K, 100 kPa, x2 = 0.972	40.9 ± 1.9

CC(C)[C@H](N)C(=O)O + CCCCCCCCCCCCCCCC[n+]1ccccc1.O=C([O-])c1ccccc1O + O
Settings	electrical conductivity [S/m]
313.15 K, 101 kPa, x1 = 0.001799, x2 = 0	0.00161 ± 9.7e-05
